Like-named read-outs stand apart in the source and are kept apart here.
How the values were obtained:
Experimental logD = assay type: physicochemical; settings: PBS (aqueous phase; partition solvent not stated), pH 7.4
σ1R [1] = molecular target: T1, σ1R (Mus musculus, UniProt O55242); experiment: In vivo PET-CT imaging with [^11C]HCC0929 in mice brain; parameters: species or system mice (BALB/c)
guinea pig σ1 receptor [2] = molecular target: T2, guinea pig σ1 receptor (Cavia porcellus, UniProt Q60492); experiment: Ex vivo σ1 receptor binding assay; settings: for Selectivity (σ2R/σ1R): ratio of σ2R Ki to σ1R Ki
T2 sequence (Q60492 whole entry): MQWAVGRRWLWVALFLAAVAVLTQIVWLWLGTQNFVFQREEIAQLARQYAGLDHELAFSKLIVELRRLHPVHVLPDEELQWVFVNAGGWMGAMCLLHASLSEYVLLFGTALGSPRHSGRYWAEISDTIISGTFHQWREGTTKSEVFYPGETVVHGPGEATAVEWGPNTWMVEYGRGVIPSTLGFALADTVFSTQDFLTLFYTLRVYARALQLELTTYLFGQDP

guinea pig σ2 receptor = settings: read-out: σ2R Ki; cited from earlier work
guinea pig σ1 receptor [3] = molecular target: T2, guinea pig σ1 receptor; settings: read-out: σ1R Kd or Ki; Kd or Ki not specified; cited from earlier work
σ1R [4] = molecular target: T1, σ1R; experiment: In vivo PET-CT imaging with [^11C]HCC0923 in mice brain; parameters: species or system mice (BALB/c); settings: self-blocking, 12.5 mg/kg i.v. 5 min before tracer

T1 sequence (O55242 whole entry): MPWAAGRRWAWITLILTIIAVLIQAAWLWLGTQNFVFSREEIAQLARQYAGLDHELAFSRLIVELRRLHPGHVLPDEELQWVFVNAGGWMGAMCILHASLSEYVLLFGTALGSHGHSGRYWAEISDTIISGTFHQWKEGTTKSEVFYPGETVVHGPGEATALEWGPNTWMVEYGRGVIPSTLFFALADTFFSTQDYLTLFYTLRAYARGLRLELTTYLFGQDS

Row | SMILES | logD (Experimental logD) | reduction in [^11C]HCC0929 mice brain uptake (σ1R [1]; self-blocking, 2.88 mg/kg i.v. 5 min before tracer) [%] | Ki (guinea pig σ1 receptor [2]) [nM] | Selectivity (σ2R/σ1R) (guinea pig σ1 receptor [2]) | reduction of [^11C]HCC0929 binding in mice brain (σ1R [1]; pretreatment 2.99 mg/kg i.v., change between peak at ∼5 min and lowest at 60 min) [%] | Ki (guinea pig σ2 receptor) [nM] | Ki (guinea pig σ1 receptor [3]) [nM] | reduction in [^11C]HCC0923 brain uptake (σ1R [4]) [%]
1 | CN1CCN(CCCOc2ccc(=O)n(-c3ccc(Cl)c(Cl)c3)n2)CC1 [compound 15, 2-(3,4-Dichlorophenyl)-6-(3-(4-methylpiperazin-1-yl)propoxy)pyridazin-3(2H)-one] | 1.73 ± 0.08 | ~58 | 5.6 ± 0.7 | 272.8 | – | – | – | –
2 | CCCN1CCC=C(c2cc(-c3ccc(C)cc3)no2)C1 [PD 144418] | – | – | – | – | ~67 | 1380 ± 179 | 4.3 ± 0.1 | –
3 | COc1ccc(-n2nc(OCCCN3CCCCC3)ccc2=O)cc1 [compound 13, 2-(4-Methoxyphenyl)-6-(3-(piperidin-1-yl)propoxy)pyridazin-3(2H)-one] | 0.89 ± 0.06 | – | 10.3 ± 1.1 | 111.3 | – | – | – | ~54

Reference: article PMC6900558 (Acta Pharmaceutica Sinica. B, 2019)
